Tests used:
Type in all cases: functional
OVCAR-4 = experiment: Cytotoxicity against Homo sapiens (human) OVCAR4 cells after 48 hr by sulforhodamine B assay; details: OVCAR-4, 48 h
UACC-62 = experiment: Cytotoxicity against Homo sapiens (human) UACC62 cells after 48 hr by sulforhodamine B assay; details: UACC-62, 48 h
UACC-257 = experiment: Cytotoxicity against Homo sapiens (human) UACC257 cells after 48 hr by sulforhodamine B assay; details: UACC-257, 48 h
LOX IMVI = experiment: Cytotoxicity against Homo sapiens (human) LOXIMVI cells after 48 hr by sulforhodamine B assay
SNB-75 = experiment: Cytotoxicity against Homo sapiens (human) SNB75 cells after 48 hr by sulforhodamine B assay; details: SNB-75, 48 h
Hs-578T = experiment: Cytotoxicity against Homo sapiens (human) Hs 578T cells after 48 hr by sulforhodamine B assay
[1] = Cytotoxicity against Homo sapiens (human) NCI-ADR-RES cells after 48 hr by sulforhodamine B assay
MDA-MB-231 = experiment: Cytotoxicity against Homo sapiens (human) MDA-MB-231 cells after 48 hr by sulforhodamine B assay; details: MDA-MB-231, 48 h
TK-10 = experiment: Cytotoxicity against Homo sapiens (human) TK10 cells after 48 hr by sulforhodamine B assay; details: TK-10, 48 h
RXF 393 = experiment: Cytotoxicity against Homo sapiens (human) RXF393 cells after 48 hr by sulforhodamine B assay; details: RXF 393, 48 h
SF-268 = experiment: Cytotoxicity against Homo sapiens (human) SF268 cells after 48 hr by sulforhodamine B assay; details: SF-268, 48 h
KM12 = experiment: Cytotoxicity against Homo sapiens (human) KM12 cells after 48 hr by sulforhodamine B assay; details: KM12, 48 h
HCT-15 = experiment: Cytotoxicity against Homo sapiens (human) HCT15 cells after 48 hr by sulforhodamine B assay; details: HCT-15, 48 h
HCT-116 = experiment: Cytotoxicity against Homo sapiens (human) HCT116 cells after 48 hr by sulforhodamine B assay; details: HCT-116, 48 h
HCC 2998 = experiment: Cytotoxicity against Homo sapiens (human) HCC2998 cells after 48 hr by sulforhodamine B assay; details: HCC 2998, 48 h
COLO 205 = experiment: Cytotoxicity against Homo sapiens (human) COLO205 cells after 48 hr by sulforhodamine B assay; details: COLO 205, 48 h
NCI-H522 = experiment: Cytotoxicity against Homo sapiens (human) NCI-H522 cells after 48 hr by sulforhodamine B assay; details: NCI-H522, 48 h
NCI-H23 = experiment: Cytotoxicity against Homo sapiens (human) NCI-H23 cells after 48 hr by sulforhodamine B assay; details: NCI-H23, 48 h
HOP-62 = experiment: Cytotoxicity against Homo sapiens (human) HOP62 cells after 48 hr by sulforhodamine B assay; details: HOP-62, 48 h
A549 = experiment: Cytotoxicity against Homo sapiens (human) A549 cells after 48 hr by sulforhodamine B assay; details: A549, 48 h
RPMI-8226 = experiment: Cytotoxicity against Homo sapiens (human) RPMI8226 cells after 48 hr by sulforhodamine B assay; details: RPMI-8226, 48 h
MOLT-4 = experiment: Cytotoxicity against Homo sapiens (human) MOLT4 cells after 48 hr by sulforhodamine B assay; details: MOLT-4, 48 h
K562 = experiment: Cytotoxicity against Homo sapiens (human) K562 cells after 48 hr by sulforhodamine B assay; details: K562, 48 h
CCRF-CEM = experiment: Cytotoxicity against Homo sapiens (human) CCRF-CEM cells after 48 hr by sulforhodamine B assay
MCF7 = experiment: Cytotoxicity against Homo sapiens (human) MCF7 cells assessed as cell growth at 10^-4 M after 48 hr by Alamar blue assay; details: MCF7, 48 h, read-out: Activity
NCI-H460 = experiment: Cytotoxicity against Homo sapiens (human) NCI-H460 cells assessed as cell growth at 10^-4 M after 48 hr by Alamar blue assay; details: NCI-H460, 48 h, read-out: Activity
[2] = read-out: LC50 (the source's name)

ClCc1cccc(Cn2cnc3c(Cl)nc(Cl)nc32)c1
GI50 (OVCAR-4): 5.49 µM | LC50 (concentration killing 50% of cells) (OVCAR-4): 61.7 µM | TGI (OVCAR-4): 19.9 µM | GI50 (UACC-62): 1.86 µM | LC50 (concentration causing 50% net cell kill) (UACC-62): 6.45 µM | TGI (UACC-62): 3.46 µM | GI50 (UACC-257): 1.86 µM | LC50 (concentration killing 50% of cells) (UACC-257): 6.45 µM | TGI (UACC-257): 3.46 µM | GI50 (LOX IMVI): 1.69 µM | LC50 (LOX IMVI): 6.91 µM | TGI (LOX IMVI): 3.38 µM | GI50 (SNB-75): 2.04 µM | TGI (SNB-75): 3.89 µM | CC50 (SNB-75; [2]): 7.41 µM | GI50 (Hs-578T): 1.99 µM | TGI (Hs-578T): 4.36 µM | GI50 [1]: 2.39 µM | LC50 (concentration killing 50% of cells) [1]: > 100 µM | TGI [1]: 5.24 µM | GI50 (MDA-MB-231): 1.95 µM | LC50 (MDA-MB-231): 7.24 µM | TGI (MDA-MB-231): 3.71 µM | GI50 (TK-10): 1.73 µM | TGI (TK-10): 3.98 µM | CC50 (TK-10; [2]): 8.91 µM | GI50 (RXF 393): 0.75 µM | TGI (RXF 393): 2.09 µM | CC50 (RXF 393; [2]): 5.12 µM | GI50 (SF-268): 2.51 µM | TGI (SF-268): 6.6 µM | CC50 (SF-268; [2]): 70.8 µM | GI50 (KM12): 1.82 µM | TGI (KM12): 3.8 µM | CC50 (KM12; [2]): 7.94 µM | GI50 (HCT-15): 2.39 µM | TGI (HCT-15): 6.91 µM | CC50 (HCT-15; [2]): > 100 µM | GI50 (HCT-116): 1.62 µM | TGI (HCT-116): 3.09 µM | CC50 (HCT-116; [2]): 5.88 µM | GI50 (HCC 2998): 1.62 µM | TGI (HCC 2998): 3.16 µM | CC50 (HCC 2998; [2]): 6.16 µM | GI50 (COLO 205): 2.23 µM | TGI (COLO 205): 5.37 µM | CC50 (COLO 205; [2]): > 100 µM | GI50 (NCI-H522): 2.69 µM | TGI (NCI-H522): 5.37 µM | CC50 (NCI-H522; [2]): 17 µM | GI50 (NCI-H23): 2.13 µM | TGI (NCI-H23): 5.12 µM | CC50 (NCI-H23; [2]): 22.4 µM | GI50 (HOP-62): 2.29 µM | TGI (HOP-62): 4.36 µM | CC50 (HOP-62; [2]): 8.31 µM | GI50 (A549): 3.09 µM | TGI (A549): 10 µM | CC50 (A549; [2]): 52.5 µM | GI50 (RPMI-8226): 3.31 µM | TGI (RPMI-8226): > 100 µM | CC50 (RPMI-8226; [2]): > 100 µM | GI50 (MOLT-4): 3.38 µM | TGI (MOLT-4): > 100 µM | CC50 (MOLT-4; [2]): > 100 µM | GI50 (K562): 1.58 µM | TGI (K562): > 100 µM | CC50 (K562; [2]): > 100 µM | GI50 (CCRF-CEM): 2.69 µM | TGI (CCRF-CEM): > 100 µM | CC50 (CCRF-CEM; [2]): > 100 µM | growth at 100 µM (MCF7): 0% | growth at 100 µM (NCI-H460): 0%

From ChEMBL document CHEMBL3044672, “N9- and N7-(Chloromethyl Phenymethyl)Chloropurine Derivatives from , '-Dichloroxylenes: Synthesis and Anticancer Activity” (2005)
